Assay results taken from US20150366890A1, “COMPOSITIONS AND METHODS FOR TREATING FUNGAL INFECTIONS” (TRUSTEES OF BOSTON UNIVERSITY, priority 2013, published 2015).
Like-named read-outs stand apart in the source and are kept apart here.

What was measured:
Type in all cases: cell-based
[1] = test system: S. cerevisiae wildtype and deletion strains
S. cerevisiae = experiment: Mitochondrial activity by MitoTracker Red fluorescence
Description: It was next sought to assess the mitochondrial activity of AF-treated fungal cells. Yhe MitoTracker Red dye, which enters the mitochondrial matrix by utilizing the proton motive force and thus labels metabolically active mitochondria in viable cells was used (Arita et al., 2006; Tomas et al., 2011). Exponential phase S. cerevisiae were incubated in glucose-free synthetic complete (SC) media for 30 min and then switched to SC containing 2% glucose or non-fermentable acetate for 1.5 hours.
(§1) Overnight yeast cultures were diluted into the indicated media and grown to an OD600 of 0.2, at which point the AFs were added. Colony forming units (CFU) were measured by plating six serial dilutions onto YPD agar plates. Cells treated with MCZ were washed before serial dilution to stop growth inhibition associated with high concentrations of MCZ. CFU were counted after three days of incubation on agar plates. When indicated, thiourea (Fluka) was added 30 min prior to the addition of AFs. HPF (10 μM) (Invitrogen) and Mito Tracker (1 μM) (Invitrogen) dyes were added to PBS-washed cells at the indicated time points and incubated for 30 min prior to flow cytometry measurements, which were taken on the FACSCalibur (Becton-Dickinson). All experiments described in this section were conducted in 0.5 ml of SDC in 24-well plates incubated at 900 rpm and 37° C. for C. albicans and 30° C. and 300 rpm for S. cerevisiae. TUNEL assays were conducted as previously described (Ribeiro et al., 2006) and are described in detail in the TUNEL section of the Experimental Procedures.

[2] = test system: C. albicans wildtype and DNA repair mutants; experiment: Fungicidal killing, CFU assay; conditions: C. albicans rad50/rad50 and rad52/rad52, 3 hours of drug exposure
Description: Overnight yeast cultures were diluted into the indicated media and grown to an OD600 of 0.2, at which point the AFs were added. Colony forming units (CFU) were measured by plating six serial dilutions onto YPD agar plates.
as §1

Compound | additive resistance on deleting the remaining citrate synthases in the cit3 background ([1]; S. cerevisiae CIT1/CIT2 deletions in cit3 background) | CFU (24-well colony forming assay), AF susceptibility vs wildtype ([1]; S. cerevisiae PAB103, SDH2 deletion) | CFU (24-well colony forming assay), AF susceptibility vs wildtype ([1]; S. cerevisiae PAB106, FMS1 deletion) | CFU (24-well colony forming assay), AF susceptibility vs wildtype ([1]; S. cerevisiae PAB107, NDE1 deletion) | CFU (24-well colony forming assay), AF susceptibility vs wildtype ([1]; S. cerevisiae PAB112, MNE1 deletion) | CFU (24-well colony forming assay), AF susceptibility vs wildtype ([1]; S. cerevisiae PAB113, FUM1 deletion) | CFU (24-well colony forming assay), AF susceptibility vs wildtype ([1]; S. cerevisiae PAB114, TPK2 deletion) | CFU (24-well colony forming assay), AF susceptibility vs wildtype ([1]; S. cerevisiae PAB119, CIT2 deletion) | CFU (24-well colony forming assay), AF susceptibility vs wildtype ([1]; S. cerevisiae PAB121, SDH1 deletion) | CFU (24-well colony forming assay), AF susceptibility vs wildtype ([1]; S. cerevisiae PAB122, TPK3 deletion) | CFU (24-well colony forming assay), AF susceptibility vs wildtype ([1]; S. cerevisiae PAB124, TPK1 deletion) | CFU (24-well colony forming assay), AF susceptibility vs wildtype ([1]; S. cerevisiae PAB132, CIT3 deletion) | CFU (24-well colony forming assay), AF susceptibility vs wildtype ([1]; S. cerevisiae PAB135, NDI1 deletion) | CFU (24-well colony forming assay), AF susceptibility vs wildtype ([1]; S. cerevisiae PAB145, CIT1 deletion) | CFU (24-well colony forming assay), AF susceptibility vs wildtype ([1]; S. cerevisiae PAB168, RAS1 deletion) | CFU (24-well colony forming assay), AF susceptibility vs wildtype ([1]; S. cerevisiae PAB171, RAS2 deletion) | reduction of killing at 3 hours by thiourea ([1]; S. cerevisiae, 50 mM thiourea for 30 minutes prior to the addition of AF drugs) | increase of MitoTracker fluorescence (S. cerevisiae; drug added to glucose-incubated (SC, 2% glucose) S. cerevisiae) | susceptibility of DSBR mutants compared to wildtype [2] | MitoTracker fluorescence in acetate-incubated vs glucose-incubated cells (S. cerevisiae; S. cerevisiae, SC with non-fermentable acetate, 1.5 hours)
Cc1cc(C2CCCCC2)n(O)c(=O)c1 [CIC, cicloplrox olamine] | not observed | Resistant (″Resistant″ or ″Sensitive″ indicate at least a 5-fold CFU difference from wildtype at the final time point) | Normal | Resistant (″Resistant″ or ″Sensitive″ indicate at least a 5-fold CFU difference from wildtype at the final time point) | Resistant (″Resistant″ or ″Sensitive″ indicate at least a 5-fold CFU difference from wildtype at the final time point) | Resistant (″Resistant″ or ″Sensitive″ indicate at least a 5-fold CFU difference from wildtype at the final time point) | Normal | Resistant (″Resistant″ or ″Sensitive″ indicate at least a 5-fold CFU difference from wildtype at the final time point) | Resistant (″Resistant″ or ″Sensitive″ indicate at least a 5-fold CFU difference from wildtype at the final time point) | Resistant (″Resistant″ or ″Sensitive″ indicate at least a 5-fold CFU difference from wildtype at the final time point) | Resistant (″Resistant″ or ″Sensitive″ indicate at least a 5-fold CFU difference from wildtype at the final time point) | Resistant (″Resistant″ or ″Sensitive″ indicate at least a 5-fold CFU difference from wildtype at the final time point) | Resistant (″Resistant″ or ″Sensitive″ indicate at least a 5-fold CFU difference from wildtype at the final time point) | Resistant (″Resistant″ or ″Sensitive″ indicate at least a 5-fold CFU difference from wildtype at the final time point) | Resistant (″Resistant″ or ″Sensitive″ indicate at least a 5-fold CFU difference from wildtype at the final time point) | Resistant (″Resistant″ or ″Sensitive″ indicate at least a 5-fold CFU difference from wildtype at the final time point) | ~15 fold | 10 fold | particularly susceptible | 
CC(=O)O [acetate] |  |  |  |  |  |  |  |  |  |  |  |  |  |  |  |  |  |  |  | approximately 5 fold
